Legend:
[1] = tested on: primary human fibroblasts derived from IPF patients (LL29 cells) treated with TGF-β1; test: Inhibition of the fibrotic process: αSMA staining in TGF-β1 treated primary human fibroblasts from IPF patients (LL29 cells); type: cell-based; details: Fibroblast, 96 h, TGF-β1 20 ng/mL, 4 days; for EC50: % αSMA positive cells; for inhibition at 10 µM: given where EC50 >10 μM, read-out: percent inhibition at 10 μM
Method in brief: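 Potency reflects suppression of TGF-β1-driven αSMA expression in IPF patient fibroblasts over 4 days. Values are EC50s from normalized αSMA-positive cell counts, with % inhibition at 10 μM when EC50 exceeded 10 μM.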

[2] = tested on: Wnt activity (Sp5-Luc reporter, SW480 colon carcinoma cells); test: Wnt activity screening assay: Sp5-Luc reporter gene in SW480 colon carcinoma cells; type: cell-based; details: Homo sapiens; for EC50: overnight incubation, 10-point curve from 10 μM
Method in brief: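 First, hygromycin-selected SW480 Sp5-Luc reporter cells are seeded in medium with 1% fetal bovine serum and exposed overnight to compound (up to 10 μM, 0.1% DMSO). Next, luciferase signal is read by luminescence. Finally, EC50 is fitted, or percent inhibition at 10 μM is reported above 10 μM.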

EC50 [2]	Compound	EC50 [1]	inhibition at 10 µM [1]	inhibition at 10 µM ([2]; given where EC50 >10 μM, 10 μM, read-out: percent inhibition at 10 μM)
3240 nM	FC1(F)CCN(Cc2cncc(-c3ccc4[nH]nc(-c5cc6c(-c7cccs7)cccc6[nH]5)c4n3)c2)C1 [Compound 362, 5-(5-((3,3-Difluoropyrrolidin-1-yl)methyl)pyridin-3-yl)-3-(4-(thiophen-2-yl)-1H-indol-2-yl)-1H-pyrazolo[4,3-b]pyridine]	1290 nM		
239 nM	CN(C)CCNc1cc(F)cc(-c2cccc3[nH]c(-c4n[nH]c5ccc(-c6cccnc6)nc45)cc23)c1 [Compound 452, N^1-(3-Fluoro-5-(2-(5-(pyridin-3-yl)-1H-pyrazolo[4,3-b]pyridin-3-yl)-1H-indol-4-yl)phenyl)-N^2,N^2-dimethylethane-1,2-diamine]	38 nM		
1390 nM	CN(C)CCNc1cc(F)cc(-c2cccc3[nH]c(-c4n[nH]c5ccc(-c6cncc(CN7CCCCC7)c6)nc45)cc23)c1 [Compound 463, N^1-(3-Fluoro-5-(2-(5-(5-(piperidin-1-ylmethyl)pyridin-3-yl)-1H-pyrazolo [4,3-b]pyridin-3-yl)-1H-indol-4-yl)phenyl)-N^2,N^2-dimethylethane-1,2-diamine]	772 nM		
498 nM	CN(C)CCNc1cc(F)cc(-c2cccc3[nH]c(-c4n[nH]c5ccc(-c6cncnc6)nc45)cc23)c1 [Compound 475, N^1-(3-Fluoro-5-(2-(5-(pyrimidin-5-yl)-1H-pyrazolo[4,3-b]pyridin-3-yl)-1H-indol-4-yl)phenyl)-N^2,N^2-dimethylylethane-1,2-diamine]	306 nM		
4620 nM	CN(C)CCNc1cc(F)cc(-c2cccc3[nH]c(-c4n[nH]c5ccc(-c6ccccn6)nc45)cc23)c1 [Compound 476, N^1-(3-Fluoro-5-(2-(5-(pyridin-2-yl)-1H-pyrazolo[4,3-b]pyridin-3-yl)-1H-indol-4-yl)phenyl)-N^2,N^2-dimethylethane-1,2-diamine]	2120 nM		
162 nM	Cc1ccncc1-c1ccc2[nH]nc(-c3cc4c(-c5cc(F)cc(CNS(C)(=O)=O)c5)cccc4[nH]3)c2n1 [Compound 481, N-(3-Fluoro-5-(2-(5-(4-methylpyridin-3-yl)-1H-pyrazolo[4,3-b]pyridin-3-yl)-1H-indol-4-yl)benzyl)methanesulfonamide]	78 nM		
256 nM	Nc1cncc(-c2ccc3[nH]nc(-c4cc5ncccc5[nH]4)c3n2)c1 [Compound 507, 5-(3-(1H-Pyrrolo[3,2-b]pyridin-2-yl)-1H-pyrazolo[4,3-b]pyridin-5-yl) pyridin-3-amine]	> 10000 nM	24.5%	
2660 nM	Fc1cccc(-c2cccc3[nH]c(-c4n[nH]c5ccc(-c6cncc(OCc7ccccc7)c6)nc45)cc23)c1 [Compound 546, 5-(5-(Benzyloxy)pyridin-3-yl)-3-(4-(3-fluorophenyl)-1H-indol-2-yl)-1H-pyrazolo[4,3-b]pyridine]	1440 nM		
4990 nM	c1cc(-c2ccncc2)c2cc(-c3n[nH]c4ccc(-c5cncc(OCCN6CCCC6)c5)nc34)[nH]c2c1 [Compound 606, 3-(4-(Pyridin-4-yl)-1H-indol-2-yl)-5-(5-(2-(pyrrolidin-1-yl)ethoxy)pyridin-3-yl)-1H-pyrazolo[4,3-b]pyridine]	1280 nM		
1600 nM	O=C(CC1CCNCC1)Nc1cncc(-c2ccc3[nH]nc(-c4cc5c(-c6ccccn6)cccc5[nH]4)c3n2)c1 [Compound 621, 2-(Piperidin-4-yl)-N-(5-(3-(4-(pyridin-2-yl)-1H-indol-2-yl)-1H-pyrazolo[4,3-b]pyridin-5-yl)pyridin-3-yl)acetamide]	2120 nM		
2390 nM	c1cc(N2CCCCC2)c2cc(-c3n[nH]c4ccc(-c5cncc(OC6CCNCC6)c5)nc34)[nH]c2c1 [Compound 636, 3-(4-(Piperidin-1-yl)-1H-indol-2-yl)-5-(5-(piperidin-4-yloxy)pyridin-3-yl)-1H-pyrazolo[4,3-b]pyridine]	3900 nM		
8160 nM	c1cc(-c2ccoc2)c2cc(-c3n[nH]c4ccc(-c5cn[nH]c5)nc34)[nH]c2c1 [Compound 711, 3-(4-(Furan-3-yl)-1H-indol-2-yl)-5-(1H-pyrazol-4-yl)-1H-pyrazolo[4,3-b] pyridine]	8810 nM		
6490 nM	c1cc(-c2ccoc2)c2cc(-c3n[nH]c4ccc(-c5cncc(OC6CCCCC6)c5)nc34)[nH]c2c1 [Compound 715, 5-(5-(Cyclohexyloxy)pyridin-3-yl)-3-(4-(furan-3-yl)-1H-indol-2-yl)-1H-pyrazolo[4,3-b]pyridine]	3940 nM		
> 10000 nM	Oc1cncc(-c2ccc3[nH]nc(-c4cc5c(-c6cccs6)cccc5[nH]4)c3n2)c1 [Compound 737, 5-(3-(4-(Thiophen-2-yl)-1H-indol-2-yl)-1H-pyrazolo[4,3-b]pyridin-5-yl) pyridin-3-ol]	2030 nM		3.3%
767 nM	c1cnc2cc(-c3n[nH]c4ccc(-c5cn[nH]c5)nc34)[nH]c2c1 [Compound 1021, 5-(1H-Pyrazol-4-yl)-3-(1H-pyrrolo[3,2-b]pyridin-2-yl)-1H-pyrazolo[4,3-b] pyridine]	1370 nM		
883 nM	Oc1cncc(-c2ccc3[nH]nc(-c4cc5ncccc5[nH]4)c3n2)c1 [Compound 1031, 5-(3-(1H-Pyrrolo[3,2-b]pyridin-2-yl)-1H-pyrazolo[4,3-b]pyridin-5-yl) pyridin-3-ol]	> 10000 nM	18.4%	
